For the first data set the following is noted: human, hek293, 0.1 µM.
In the case of `CCCc1nc2c(C)cc(-c3nc4ccccc4n3C)cc2n1Cc1ccc(-c2ccccc2C(=O)O)cc1`, the Fu was 0.42.
As for `CC(C)(C)NC(=O)[C@@H]1C[C@@H]2CCCC[C@@H]2CN1C[C@@H](O)[C@H](Cc1ccccc1)NC(=O)[C@H](CC(N)=O)NC(=O)c1ccc2ccccc2n1`, the Fu stood at 0.17.
Consider `CC(C)CN(C[C@@H](O)[C@H](Cc1ccccc1)NC(=O)O[C@H]1CCOC1)S(=O)(=O)c1ccc(N)cc1`, for which the Fu came out at 0.92.
For `C=CCc1ccccc1OCC(O)CNC(C)C` (stereo unspecified) [ALPRENOLOL], the Fu is recorded as 0.9.
Still for that read-out and setting: under `CCCCN1CCCCC1C(=O)Nc1c(C)cccc1C` (stereo unspecified) [BUPIVACAINE] stands 0.89; under `NC(=O)N1c2ccccc2C=Cc2ccccc21` [CARBAMAZEPINE], 0.97; under `COCc1c(C(C)C)nc(C(C)C)c(/C=C/[C@@H](O)C[C@@H](O)CC(=O)O)c1-c1ccc(F)cc1` [CERIVASTATIN], 0.55.
The same measure, in the same setting: under `CCCNC(=O)NS(=O)(=O)c1ccc(Cl)cc1` [CHLORPROPAMIDE] stands 1.
In turn, `CN/C(=N/CCSCc1nc[nH]c1C)NC#N` [CIMETIDINE] gave a Fu of 1.
In turn, `CN(C)CCCC1(c2ccc(F)cc2)OCc2cc(C#N)ccc21` (stereo unspecified) [CITALOPRAM] came in with a Fu of 0.81.
`CN(C)CCCN1c2ccccc2CCc2ccc(Cl)cc21` [CLOMIPRAMINE] showed a Fu of 0.19.
Molecule `COc1ccc2c(c1)[C@]13CCCC[C@@H]1[C@H](C2)N(C)CC3` [DEXTROMETHORPHAN] showed a Fu of 0.82.
In the case of `O=C(O)Cc1ccccc1Nc1c(Cl)cccc1Cl` [DICLOFENAC], the Fu is 0.78.
In turn, `O=C(CCCN1CCC(O)(c2ccc(Cl)cc2)CC1)c1ccc(F)cc1` [HALOPERIDOL] had a Fu of 0.52.
Molecule `COc1ccc2c(c1)c(CC(=O)O)c(C)n2C(=O)c1ccc(Cl)cc1` [INDOMETHACIN] yielded a Fu of 0.79.
Molecule `CC(=O)N1CCN(c2ccc(OCC3COC(Cn4ccnc4)(c4ccc(Cl)cc4Cl)O3)cc2)CC1` (stereo unspecified) [KETOCONAZOLE] yielded a Fu of 0.39.
As for `CN(C)C(=O)C(CCN1CCC(O)(c2ccc(Cl)cc2)CC1)(c1ccccc1)c1ccccc1` [LOPERAMIDE], the Fu came to 0.35.
For the molecule `CC[C@H](C)C(=O)O[C@H]1C[C@@H](C)C=C2C=C[C@H](C)[C@H](CC[C@@H]3C[C@@H](O)CC(=O)O3)[C@H]21` [LOVASTATIN], the Fu came to 0.22.
Molecule `CCN(CC)CCNC(=O)c1cc(Cl)c(N)cc1OC` [METOCLOPRAMIDE] displayed a Fu of 0.95.
Molecule `COCCc1ccc(OCC(O)CNC(C)C)cc1` (stereo unspecified) [METOPROLOL] returned a Fu of 1.
As to `Cc1ncc2n1-c1ccc(Cl)cc1C(c1ccccc1F)=NC2` [MIDAZOLAM], the Fu amounted to 0.66.
`O=C1c2c(O)ccc(O)c2C(=O)c2c(NCCNCCO)ccc(NCCNCCO)c21` [MITOXANTRONE] returned a Fu of 0.13.
In turn, `COC(=O)C1=C(C)NC(C)=C(C(=O)OCCN(C)Cc2ccccc2)C1c1cccc([N+](=O)[O-])c1` (stereo unspecified) [NICARDIPINE] showed a Fu of 0.095.
As to `Cc1nccn1CC1CCc2c(c3ccccc3n2C)C1=O` (stereo unspecified) [ONDANSETRON], the Fu is recorded as 0.94.
Take `Fc1ccc([C@@H]2CCNC[C@H]2COc2ccc3c(c2)OCO3)cc1` [PAROXETINE]: the Fu is reported as 0.25.
In the case of `CC(=O)[C@H]1CC[C@H]2[C@@H]3CCC4=CC(=O)CC[C@]4(C)[C@H]3CC[C@]12C` [PROGESTERONE], the Fu is reported as 0.67.
Turning to `CC(C)NCC(O)COc1cccc2ccccc12` (stereo unspecified) [PROPRANOLOL], the Fu was 0.7.
Take `CNC(=C[N+](=O)[O-])NCCSCc1ccc(CN(C)C)o1` [RANITIDINE]: the Fu is given as 1.
For the molecule `CO[C@H]1/C=C/O[C@@]2(C)Oc3c(C)c(O)c4c(O)c(c(/C=N/N5CCN(C)CC5)c(O)c4c3C2=O)NC(=O)/C(C)=C\C=C\[C@H](C)[C@H](O)[C@@H](C)[C@@H](O)[C@@H](C)[C@H](OC(C)=O)[C@@H]1C` [RIFAMPIN], the Fu is 0.62.
`C[C@@H]1CN(c2c(F)c(N)c3c(=O)c(C(=O)O)cn(C4CC4)c3c2F)C[C@H](C)N1` [SPARFLOXACIN] displayed a Fu of 0.88.
Same read-out and setting: the figure for `O=C(CCCN1CCC2(CC1)C(=O)NCN2c1ccccc1)c1ccc(F)cc1` [SPIPERONE] is 0.66; for `O=C(O)c1cc(/N=N/c2ccc(S(=O)(=O)Nc3ccccn3)cc2)ccc1O` [SULFASALAZINE] it is 0.72; for `CC(C)(C)NCC(O)COc1ccc(NC(=O)NC2CCCCC2)cc1` (stereo unspecified) [TALINOLOL] it is 0.85.
For `CSc1ccc2c(c1)N(CCC1CCCCN1C)c1ccccc1S2` (stereo unspecified) [THIORIDAZINE], the Fu came out at 0.049.
Regarding `CC(CN(C)C)CN1c2ccccc2CCc2ccccc21` (stereo unspecified) [TRIMIPRAMINE], the Fu amounted to 0.4.

A further data set is described as follows: Unbound fraction in HEK293 cell homogenate at 0.01 uM by equilibrium dialysis based UPLC-MS/MS analysis. The class given is ADME. The conditions noted are these: human, hek293, 0.01 µM.
Regarding `Cc1c(O)cccc1C(=O)N[C@@H](CSc1ccccc1)[C@H](O)CN1C[C@H]2CCCC[C@H]2C[C@H]1C(=O)NC(C)(C)C`, the Fu was 0.024.

The record behind these values is ChEMBL document CHEMBL3232907, “A high-throughput cell-based method to predict the unbound drug fraction in the brain” (J Med Chem, 2014).
